Experimental data from patent US20250188171A1, “COMBINATION THERAPY INCLUDING ANTIBODIES THAT BIND EGFR AND CMET” (MERUS N.V., priority 2022, published 2025).

Columns and labels:
[1] = target: cMET (Homo sapiens, UniProt P08581); conditions: reported; cited from earlier work
[2] = system: cMET and EGFR; conditions: Moores et al. (2016); cited from earlier work
[3] = system: LXFE2478 NSCLC PDX tumor model
Experimental: This model carries mutation EGFRex20ins (M766_A767insASV).
Insertion of 9 nucleotides in exon 20 in this model affects the EGFR tyrosine kinase domain (M766X) and confers resistance to small molecule EGFR inhibitors. This model carries no mutations in B-RAF, H-/N- and KRAS and PTEN genes (whole exome sequencing was done for both patient tumor and tumor xenograft with matching results).
Antitumor efficacy of all groups was assessed using the control vehicle/placebo buffer group as a reference. Tumor growth inhibition was determined by the comparison of RTVs of the test groups with the control group and is expressed as minimum T/C value in percent. For the evaluation of the statistical significance of antitumor efficacy, the non-parametric Kruskal-Wallis test followed by Dunn's method for multiple comparisons was performed. […] Statistical analysis was only carried out if at least 50% of the initially randomized animals still remained in the relevant group. Comparisons between test groups were carried out for the same days. All p-values <0.05 were considered statistically significant. Statistical calculations were performed using GraphPad Prism bioanalytic software (version 9.10 for Microsoft Windows, GraphPad Software, San Diego, California, USA.
Tumors were harvested from the donor PDX mice, cut into fragments (LXFE2478: 3-4 mm edge length) and inoculated into recipient nude mice subcutaneously (SC) in the flank. When the tumor implants reached approximately 80-200 mm3 in a sufficient number of animals, mice were assigned to groups. Randomization was performed based on “stratified distribution” method. Treatment started on the same day as randomization (day 0).
Treatment started the same day as enrollment (day 0). Mice were terminated during the observation period if the tumor volume was >1000 mm3.
Antibody was administered once a week intra peritoneally (IP) at 5 mg/kg and 25 mg/kg dose over a period of 5 weeks.
After randomization, animals were routinely monitored for morbidity and mortality, they were weighted twice a week, and tumor volumes (TV) were determined twice a week with a caliper. Relative body weight (RBW) was calculated by dividing the absolute weight or volume on a certain day by the absolute weight at day 0 multiplied by 100. Relative tumor volumes (RTV) were calculated by dividing the absolute individual tumor volume on a certain day by the absolute tumor volume at day 0 multiplied by 100.
For mice that lost >10% body weight, weight was measured daily, and animals had facilitated access to feed and water, and access to DietGel.
A dose-free observation period was included to compare duration of response and relapse (tumor re-growth) after treatment end. […]

[4] = system: HCC827-ER1 tumor cells; test: HCC827-ER1 NSCLC CDX model with EGFR exon 19 deletion
Text: The model HCC827-ER1 was generated in BALB/c nude mice. It carries an EGFR mutation in exon 19 (deletion E746-A750), and has amplified c-MET copy number and Axl expression compared to the wild type HCC827 cell line.
Each mouse was inoculated in the right front flank region with HCC827-ER1 tumor cells mixed with Matrigel for tumor development. […] The date of randomization was denoted as day 0 and dosing was initiated from day 0. […] The dose-free observation period was included to compare duration of response and relapse (tumor re-growth) after treatment end. Mice with tumor volume exceeding 1500 mm^3, or with body weight loss over 20% relative to the weight at the first day of treatment were terminated during the treatment period. Antibody was administered twice a week intra peritoneally (i.p.) at 25 mg/kg dose over a period of 21 days, with a total of 7 doses. […] Eight mice in group 1 were treated with vehicle control (placebo buffer). Tumor volume (mm^3) was measured twice per week in 2 dimensions using a caliper. The animals were checked for any effects of tumor growth and treatments on behavior such as mobility, food and water consumption, body weight gain/loss, eye/hair matting and any other abnormalities. Body weights were measured twice per week after randomization.

[5] = target: mouse EGFR (Mus musculus, UniProt Q01279); test: Binding to mouse EGFR; conditions: in words

Chain of cMET (P08581 25-1390): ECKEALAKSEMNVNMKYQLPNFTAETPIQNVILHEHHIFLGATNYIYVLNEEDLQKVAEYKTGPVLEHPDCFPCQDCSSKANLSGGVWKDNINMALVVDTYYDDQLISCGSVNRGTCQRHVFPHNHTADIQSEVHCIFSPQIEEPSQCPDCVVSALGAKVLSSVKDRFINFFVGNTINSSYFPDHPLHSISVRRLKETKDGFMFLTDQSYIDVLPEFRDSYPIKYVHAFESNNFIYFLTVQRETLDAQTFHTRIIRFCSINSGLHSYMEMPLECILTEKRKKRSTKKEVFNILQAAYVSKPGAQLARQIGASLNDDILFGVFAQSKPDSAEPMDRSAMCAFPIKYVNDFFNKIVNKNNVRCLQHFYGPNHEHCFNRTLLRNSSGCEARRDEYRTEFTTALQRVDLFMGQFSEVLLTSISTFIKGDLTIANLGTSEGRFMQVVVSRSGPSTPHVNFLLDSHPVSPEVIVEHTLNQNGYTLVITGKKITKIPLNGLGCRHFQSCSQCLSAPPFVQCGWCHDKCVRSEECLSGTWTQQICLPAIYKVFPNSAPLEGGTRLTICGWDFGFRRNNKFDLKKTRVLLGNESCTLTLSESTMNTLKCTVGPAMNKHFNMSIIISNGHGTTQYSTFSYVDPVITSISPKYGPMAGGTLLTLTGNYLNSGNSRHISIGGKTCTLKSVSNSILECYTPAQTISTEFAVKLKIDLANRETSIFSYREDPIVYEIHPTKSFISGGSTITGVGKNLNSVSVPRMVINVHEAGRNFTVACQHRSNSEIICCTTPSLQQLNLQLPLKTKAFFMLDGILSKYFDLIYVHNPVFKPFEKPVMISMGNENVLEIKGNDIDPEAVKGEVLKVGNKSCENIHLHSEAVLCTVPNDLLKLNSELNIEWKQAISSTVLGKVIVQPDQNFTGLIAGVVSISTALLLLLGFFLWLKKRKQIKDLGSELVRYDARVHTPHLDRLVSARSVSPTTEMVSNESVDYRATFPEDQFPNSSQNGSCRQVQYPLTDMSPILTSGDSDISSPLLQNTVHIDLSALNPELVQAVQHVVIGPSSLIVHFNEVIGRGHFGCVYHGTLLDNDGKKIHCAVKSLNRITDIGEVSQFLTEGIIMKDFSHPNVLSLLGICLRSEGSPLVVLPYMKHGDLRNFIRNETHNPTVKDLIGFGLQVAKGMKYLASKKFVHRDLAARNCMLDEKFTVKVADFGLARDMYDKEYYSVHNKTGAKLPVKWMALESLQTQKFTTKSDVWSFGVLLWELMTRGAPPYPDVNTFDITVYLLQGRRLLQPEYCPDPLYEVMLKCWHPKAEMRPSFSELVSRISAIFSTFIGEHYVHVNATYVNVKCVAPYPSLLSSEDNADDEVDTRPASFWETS

5D5: reference anti-cMET antibody, Sema Domain, HGF block
MOA [1]: HGF block

JNJ-61186372: bispecific cMET×EGFR antibody produced by controlled Fab-arm exchange (Moores et al 2016)
affinity imbalance, greater affinity for cMET than EGFR [2]: approximately 40 ×

C=CC(=O)Nc1cc(Nc2nccc(-c3cn(C)c4ccccc34)n2)c(OC)cc1N(C)CCN(C)C [Osimertinib]
anti-tumor efficacy, monotherapy ([3]; 5 and 25 mg/kg): dose-dependent anti-tumor efficacy | body weight loss ([3]; Osimertinib 25 mg/kg PO QD): > 10% | sensitivity of the model to treatment ([3]; at 5 mg/kg): reduced sensitivity | xenograft progression to 750 mm3, mice ([3]; mouse, in vivo): 6/9 | adverse events ([4]; 25 mg/kg): tumor scabbing or tumor ulceration in some mice | effect on tumor volume ([4]; mouse, in vivo): tumor regression

zalutumumab: EGFR monoclonal antibody in clinical development
binding to mouse EGFR [5]: do not
